The source of these data is patent US11208412B2 (DAEGU-GYEONGBUK MEDICAL INNOVATION FOUNDATION, priority 2017, dated 2021).

Common to all, as to test: Kinase selectivity, DiscoverX scanMAX Kinase assay panel (% control)
What all share (type): binding

Test [1] has as its target T1, kinases of the scanMAX Kinase assay panel (Homo sapiens, UniProt P37023).
T1 construct: purchased DiscoverX Co. (contract measurement) scanMAX Kinase assay panel
Conditions: ACVRL1; 1 uM. The essentials: (§1)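 A 1 uM DMSO solution of compound was applied across the panel kinases, and results were expressed as % control relative to DMSO (100%) and a positive control (0%).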

Test [2] concerns the target T2, kinases of the scanMAX Kinase assay panel (Homo sapiens, UniProt Q8N568).
T2 construct: purchased DiscoverX Co. (contract measurement) scanMAX Kinase assay panel
The settings on record: DCAMKL2; 1 uM. The essentials:
as §1

The target in test [3] is T3, kinases of the scanMAX Kinase assay panel (Homo sapiens, UniProt Q13237).
T3 construct: purchased DiscoverX Co. (contract measurement) scanMAX Kinase assay panel
T3 sequence (Q13237 1-762): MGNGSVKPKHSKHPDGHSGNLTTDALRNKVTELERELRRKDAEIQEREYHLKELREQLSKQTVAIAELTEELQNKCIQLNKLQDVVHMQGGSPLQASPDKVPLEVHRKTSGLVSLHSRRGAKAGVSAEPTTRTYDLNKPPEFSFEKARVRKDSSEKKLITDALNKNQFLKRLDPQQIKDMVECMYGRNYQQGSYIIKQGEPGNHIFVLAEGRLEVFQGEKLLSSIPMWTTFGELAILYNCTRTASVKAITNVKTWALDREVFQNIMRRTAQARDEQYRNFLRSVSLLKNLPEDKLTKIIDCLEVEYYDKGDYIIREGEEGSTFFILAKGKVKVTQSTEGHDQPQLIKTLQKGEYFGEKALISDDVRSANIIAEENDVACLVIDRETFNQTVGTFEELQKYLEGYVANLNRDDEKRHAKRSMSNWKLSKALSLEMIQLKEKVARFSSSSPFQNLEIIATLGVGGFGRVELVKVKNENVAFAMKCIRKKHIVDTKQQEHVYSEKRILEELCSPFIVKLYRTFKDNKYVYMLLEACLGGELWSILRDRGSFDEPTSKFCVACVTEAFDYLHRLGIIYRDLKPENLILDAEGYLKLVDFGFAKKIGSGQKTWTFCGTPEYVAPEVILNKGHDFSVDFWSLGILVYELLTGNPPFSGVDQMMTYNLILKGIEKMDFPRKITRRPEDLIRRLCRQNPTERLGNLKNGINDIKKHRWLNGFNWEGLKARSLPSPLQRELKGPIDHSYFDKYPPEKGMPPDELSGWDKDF
Conditions: PRKG2; 1 uM. The essentials:
as §1

The target in test [4] is T4, kinases of the scanMAX Kinase assay panel (Homo sapiens, UniProt O75385).
T4 construct: purchased DiscoverX Co. (contract measurement) scanMAX Kinase assay panel
T4 sequence (O75385 1-1050): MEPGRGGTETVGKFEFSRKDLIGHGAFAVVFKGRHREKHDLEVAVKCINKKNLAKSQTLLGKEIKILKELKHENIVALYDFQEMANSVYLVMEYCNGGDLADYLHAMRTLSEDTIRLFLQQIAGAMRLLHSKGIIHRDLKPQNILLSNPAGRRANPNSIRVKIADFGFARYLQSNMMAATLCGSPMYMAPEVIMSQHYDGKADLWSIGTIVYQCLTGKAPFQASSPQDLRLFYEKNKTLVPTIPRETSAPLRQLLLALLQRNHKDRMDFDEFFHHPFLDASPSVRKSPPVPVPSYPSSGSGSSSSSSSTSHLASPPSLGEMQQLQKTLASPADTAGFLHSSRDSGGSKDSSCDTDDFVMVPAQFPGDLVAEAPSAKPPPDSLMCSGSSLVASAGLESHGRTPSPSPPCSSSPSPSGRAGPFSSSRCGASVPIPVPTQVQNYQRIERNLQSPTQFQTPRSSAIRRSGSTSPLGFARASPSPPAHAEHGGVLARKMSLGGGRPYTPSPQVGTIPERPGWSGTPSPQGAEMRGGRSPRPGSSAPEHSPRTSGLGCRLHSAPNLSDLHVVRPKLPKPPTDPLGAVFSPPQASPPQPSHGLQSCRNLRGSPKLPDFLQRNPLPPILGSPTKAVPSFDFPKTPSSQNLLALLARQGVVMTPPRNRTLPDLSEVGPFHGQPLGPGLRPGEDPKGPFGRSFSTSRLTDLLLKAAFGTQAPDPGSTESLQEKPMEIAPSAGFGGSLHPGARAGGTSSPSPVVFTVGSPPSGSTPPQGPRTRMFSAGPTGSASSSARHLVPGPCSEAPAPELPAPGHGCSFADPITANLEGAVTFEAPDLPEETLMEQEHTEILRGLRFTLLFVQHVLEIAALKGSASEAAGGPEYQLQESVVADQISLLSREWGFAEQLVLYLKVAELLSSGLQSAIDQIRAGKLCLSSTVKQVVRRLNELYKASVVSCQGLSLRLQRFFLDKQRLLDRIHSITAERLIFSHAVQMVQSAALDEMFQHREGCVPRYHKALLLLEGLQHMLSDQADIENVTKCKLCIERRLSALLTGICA
The settings on record: kinase ULK1; 1 uM in DMSO. Put shortly: as §1

T1 sequence (P37023 22-503): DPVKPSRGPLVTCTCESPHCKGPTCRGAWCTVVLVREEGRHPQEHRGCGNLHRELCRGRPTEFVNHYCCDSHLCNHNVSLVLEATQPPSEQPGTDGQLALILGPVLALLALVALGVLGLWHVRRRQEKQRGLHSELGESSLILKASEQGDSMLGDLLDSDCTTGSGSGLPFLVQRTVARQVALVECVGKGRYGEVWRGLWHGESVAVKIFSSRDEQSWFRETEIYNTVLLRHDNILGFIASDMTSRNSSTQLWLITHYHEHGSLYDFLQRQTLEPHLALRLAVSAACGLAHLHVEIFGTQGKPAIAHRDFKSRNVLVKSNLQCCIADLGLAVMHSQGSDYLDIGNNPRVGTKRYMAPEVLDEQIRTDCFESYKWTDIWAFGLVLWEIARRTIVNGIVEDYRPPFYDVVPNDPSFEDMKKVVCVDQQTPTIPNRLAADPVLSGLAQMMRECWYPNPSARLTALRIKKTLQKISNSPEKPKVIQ
T2 sequence (Q8N568 whole entry): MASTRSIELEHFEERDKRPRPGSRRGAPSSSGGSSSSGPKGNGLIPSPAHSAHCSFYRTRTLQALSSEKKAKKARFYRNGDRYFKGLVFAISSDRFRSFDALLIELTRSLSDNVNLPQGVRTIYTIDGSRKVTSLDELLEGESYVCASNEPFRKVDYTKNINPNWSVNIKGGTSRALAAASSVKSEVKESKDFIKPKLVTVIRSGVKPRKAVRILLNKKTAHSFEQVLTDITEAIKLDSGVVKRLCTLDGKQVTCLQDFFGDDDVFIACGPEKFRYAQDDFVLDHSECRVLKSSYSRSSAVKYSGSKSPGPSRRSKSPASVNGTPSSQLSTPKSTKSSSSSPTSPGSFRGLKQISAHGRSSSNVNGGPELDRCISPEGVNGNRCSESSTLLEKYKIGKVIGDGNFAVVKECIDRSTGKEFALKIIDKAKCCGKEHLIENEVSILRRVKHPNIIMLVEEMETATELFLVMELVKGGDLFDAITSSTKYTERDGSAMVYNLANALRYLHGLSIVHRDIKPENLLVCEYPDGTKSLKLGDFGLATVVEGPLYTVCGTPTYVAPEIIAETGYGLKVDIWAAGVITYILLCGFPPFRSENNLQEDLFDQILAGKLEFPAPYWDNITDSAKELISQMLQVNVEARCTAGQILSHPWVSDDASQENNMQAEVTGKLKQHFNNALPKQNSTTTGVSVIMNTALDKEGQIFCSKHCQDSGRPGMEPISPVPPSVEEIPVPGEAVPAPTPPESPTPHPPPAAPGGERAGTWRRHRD

Take `CC1(Nc2nc(Nc3cnn([C@H]4CCN(C5COC5)C[C@@H]4F)c3Cl)nc3[nH]cc(C#N)c23)CC1` [Example 52, 2-((5-chloro-1-((3S,4S)-3-fluoro-1-(oxetane-3-yl)piperidine-4-yl)-1H-pyrazole-4-yl)amino)((1-methylcyclopropyl)amino)-7H-pyrrolo[2,3-d]pyrimidine-5-carbonitrile]: the remaining binding at 1 µM in test [1] came out at 100%; in test [2], 76%; in test [3], 94%; in test [4], 20%.

As for `CCNc1nc(Nc2ccc(C(=O)N3CCC(N4CCOCC4)CC3)cc2OC)nc2[nH]cc(C(F)(F)F)c12` [Example 104, (4-((4-(ethylamino)-5-(trifluoromethyl)-7H-pyrrolo[2,3-d]pyrimidine-2-yl)amino)-3-methoxyphenyl)(4-morpholinopiperidine-1-yl)methanone], the remaining binding at 1 µM in test [1] worked out at 97%; in test [2], 93%; in test [3], 91%; in test [4], 100%.

On to `CNc1nc(Nc2ccc(C(=O)N3CCOCC3)cc2OC)nc2[nH]cc(C#N)c12` [Example 1, 2-((2-methoxy-4-(morpholine-4-carbonyl)phenyl)amino)-4-(methylamino)-7H-pyrrolo[2,3-d]pyrimidine-5-carbonitrile], for which the remaining binding at 1 µM in test [1] was 88%; in test [2] it was 91%; in test [3], 100%; in test [4], 75%.
